Numbers after ± are expanded uncertainties.
Experiment: molar heat capacity at constant pressure; xn = mol fraction of the nth substance listed
Conditions: 101 kPa, Liquid, Small sample (50 mg) DSC

CN1CCN(C)CC1 [1,4-dimethylpiperazine] + O
molar heat capacity at constant pressure [J/K/mol]
Conditions	x1 = 0.1	x1 = 0.2007	x1 = 0.2992	x1 = 0.4011	x1 = 0.5	x1 = 0.6015	x1 = 0.6993	x1 = 0.799	x1 = 0.8983	x1 = 1
298.15 K	108.6 ± 2.5	122.7 ± 2.6	135.3 ± 2.8	148.5 ± 2.9	159.8 ± 3	171.1 ± 3.1	183.7 ± 3.3	195.4 ± 3.4	206.1 ± 3.5	216.5 ± 3.7
303.15 K	110.2 ± 2.5	124.5 ± 2.7	137.6 ± 2.8	150.9 ± 2.9	162.6 ± 3	174.8 ± 3.2	188.1 ± 3.3	199.9 ± 3.5	211.3 ± 3.6	221.7 ± 3.7
308.15 K	111.1 ± 2.5	125.9 ± 2.7	139.7 ± 2.8	152.3 ± 2.9	164.9 ± 3.1	176.4 ± 3.2	189.9 ± 3.3	202.1 ± 3.5	212.6 ± 3.6	222.1 ± 3.7
313.15 K	112 ± 2.6	127.8 ± 2.7	141.9 ± 2.8	154.4 ± 3	166.7 ± 3.1	178.5 ± 3.2	192.3 ± 3.4	204.4 ± 3.5	214.6 ± 3.6	223.4 ± 3.7
318.15 K	113 ± 2.6	129.8 ± 2.7	144.1 ± 2.9	156.5 ± 3	169 ± 3.1	180.6 ± 3.2	194.4 ± 3.4	206.7 ± 3.5	216.5 ± 3.7	224.6 ± 3.8
323.15 K	114.3 ± 2.6	132.1 ± 2.7	146.3 ± 2.9	158.2 ± 3	171 ± 3.1	182.5 ± 3.3	196.6 ± 3.4	208.8 ± 3.6	218 ± 3.7	225.3 ± 3.8
328.15 K	115.5 ± 2.6	134.5 ± 2.8	148.7 ± 2.9	160.6 ± 3	172.7 ± 3.2	184.8 ± 3.3	198.7 ± 3.4	210.8 ± 3.6	219.8 ± 3.7	225.7 ± 3.8
333.15 K	116.4 ± 2.6	136.4 ± 2.8	151.5 ± 2.9	163.3 ± 3.1	174.8 ± 3.2	186.4 ± 3.3	200.6 ± 3.5	213.1 ± 3.6	221.6 ± 3.7	227.5 ± 3.8
338.15 K	117.4 ± 2.6	137.7 ± 2.8	153.5 ± 3	165.8 ± 3.1	177.1 ± 3.2	188.5 ± 3.3	202.8 ± 3.5	215.2 ± 3.6	223.5 ± 3.7	228.5 ± 3.8
343.15 K	118.4 ± 2.6	139.3 ± 2.8	156.2 ± 3	169 ± 3.1	179.7 ± 3.2	191.4 ± 3.4	205.4 ± 3.5	217.7 ± 3.7	225.5 ± 3.8	229.6 ± 3.8
348.15 K	119.5 ± 2.6	141 ± 2.8	157.8 ± 3	171.3 ± 3.1	182.6 ± 3.3	194.4 ± 3.4	208.5 ± 3.6	220.6 ± 3.7	227.9 ± 3.8	231.7 ± 3.8
353.15 K	120.8 ± 2.6	142.4 ± 2.8	159.4 ± 3	173.6 ± 3.2	185.7 ± 3.3	198.7 ± 3.4	213.5 ± 3.6	225.5 ± 3.8	233.5 ± 3.9	235.9 ± 3.9
